The source of these data is ChEMBL document CHEMBL1681684, “Structure based design of heat shock protein 90 inhibitors acting as anticancer agents” (Bioorg Med Chem, 2011).

Where only a bound is given, the exact number is not on record here.

The first test concerns A549. Briefly: Anticancer activity against human A549 cells assessed as growth inhibition at 100 uM by MTT assay. Format: functional.
With `O=S(=O)(NCCc1c[nH]c2ccc(F)cc12)c1ccc(Br)cc1OC(F)(F)F`, the inhibition at 100 µM amounted to 43.5%.

The next test deals with DU-145. Briefly: Anticancer activity against human DU145 cells assessed as growth inhibition at 100 uM by MTT assay. The format is functional. (In general: Tetrazolium dyes change colour on reduction, which living cells bring about.)
Regarding `O=S(=O)(NCCc1c[nH]c2ccc(F)cc12)c1ccc(Br)cc1OC(F)(F)F`, the inhibition at 100 µM is 44.4%.

The next test concerns HT-29. Briefly: Anticancer activity against human HT-29 cells assessed as growth inhibition at 100 uM by MTT assay. The format is functional.
On to `CCOc1ccc(Nc2nc(NCc3ccccc3)c3ccccc3n2)cc1`, for which the inhibition at 100 µM was found to be 92.9%.

Consider `Cc1cccc(Nc2nc(NCc3ccco3)c3ccccc3n2)c1`, for which the inhibition at 100 µM was 93.6%.

Regarding `COc1ccc(Nc2nc(NCc3ccccc3)c3ccccc3n2)cc1`, the inhibition at 100 µM amounted to 92.9%.

As for `Fc1ccc(Nc2nc(NCc3ccccc3)c3ccccc3n2)cc1`, the inhibition at 100 µM amounted to 93.4%.

In the case of `Oc1ccc(Nc2nc(NCc3ccco3)c3ccccc3n2)cc1`, the inhibition at 100 µM came to 93.3%.

Consider `CN(C)CCNc1nc(-c2ccc(C(C)(C)C)cc2)nc2ccccc12`, for which the inhibition at 100 µM was found to be 93.4%.

In the case of `O=S(=O)(NCCc1c[nH]c2ccc(F)cc12)c1ccc(Br)cc1OC(F)(F)F`, the inhibition at 100 µM stood at 63.5%.

Regarding `COc1ccc(Nc2nc(NCc3ccco3)c3ccccc3n2)cc1`, the inhibition at 100 µM came to 90.9%.

For `Oc1cccc(Nc2nc(NCc3ccccc3)c3ccccc3n2)c1`, the inhibition at 100 µM stood at 81.9%.

The subject of a further test is SK-MEL-2. Briefly: Anticancer activity against human SK-MEL-2 cells assessed as growth inhibition at 100 uM by MTT assay. Format: functional.
Consider `CCOc1ccc(Nc2nc(NCc3ccccc3)c3ccccc3n2)cc1`, for which the inhibition at 100 µM is 88%.

With `Cc1cccc(Nc2nc(NCc3ccco3)c3ccccc3n2)c1`, the inhibition at 100 µM was determined as 78.7%.

Turning to `COc1ccc(Nc2nc(NCc3ccccc3)c3ccccc3n2)cc1`, the inhibition at 100 µM was determined as 89.3%.

On to `Fc1ccc(Nc2nc(NCc3ccccc3)c3ccccc3n2)cc1`, for which the inhibition at 100 µM came out at 89.9%.

`Oc1ccc(Nc2nc(NCc3ccco3)c3ccccc3n2)cc1`: the inhibition at 100 µM amounted to 86.2%.

Take `CN(C)CCNc1nc(-c2ccc(C(C)(C)C)cc2)nc2ccccc12`: the inhibition at 100 µM amounted to 89.6%.

Regarding `O=S(=O)(NCCc1c[nH]c2ccc(F)cc12)c1ccc(Br)cc1OC(F)(F)F`, the inhibition at 100 µM came to 34%.

For the compound `COc1ccc(Nc2nc(NCc3ccco3)c3ccccc3n2)cc1`, the inhibition at 100 µM came out at 89.3%.

Regarding `Oc1cccc(Nc2nc(NCc3ccccc3)c3ccccc3n2)c1`, the inhibition at 100 µM turned out to be 78.9%.

For a further test, the system named is SK-OV-3. Briefly: Anticancer activity against human SKOV3 cells assessed as growth inhibition at 100 uM by MTT assay. Format: functional.
As for `CCOc1ccc(Nc2nc(NCc3ccccc3)c3ccccc3n2)cc1`, the inhibition at 100 µM stood at 91.8%.

On to `Cc1cccc(Nc2nc(NCc3ccco3)c3ccccc3n2)c1`, for which the inhibition at 100 µM turned out to be 93.3%.

Take `COc1ccc(Nc2nc(NCc3ccccc3)c3ccccc3n2)cc1`: the inhibition at 100 µM was 92.3%.

Turning to `Fc1ccc(Nc2nc(NCc3ccccc3)c3ccccc3n2)cc1`, the inhibition at 100 µM came out at 91.3%.

As for `Oc1ccc(Nc2nc(NCc3ccco3)c3ccccc3n2)cc1`, the inhibition at 100 µM turned out to be 92.3%.

For the compound `CN(C)CCNc1nc(-c2ccc(C(C)(C)C)cc2)nc2ccccc12`, the inhibition at 100 µM is 92.3%.

For the compound `O=S(=O)(NCCc1c[nH]c2ccc(F)cc12)c1ccc(Br)cc1OC(F)(F)F`, the inhibition at 100 µM was determined as 22.5%.

For `COc1ccc(Nc2nc(NCc3ccco3)c3ccccc3n2)cc1`, the inhibition at 100 µM is 92.5%.

Regarding `Oc1cccc(Nc2nc(NCc3ccccc3)c3ccccc3n2)c1`, the inhibition at 100 µM was determined as 85.5%.

Another test has as its system A549. Briefly: Anticancer activity against human A549 cells by MTT assay. Format: functional, cell-based.
`O=S(=O)(NCCc1c[nH]c2ccc(F)cc12)c1ccc(Br)cc1OC(F)(F)F` came in with an IC50 of 55 µM.

The test system of another test is DU-145. Briefly: Anticancer activity against human DU145 cells by MTT assay. Format: functional, cell-based.
On to `CCOc1ccc(Nc2nc(NCc3ccccc3)c3ccccc3n2)cc1`, for which half-maximal inhibition (IC50) was put at 19.2 µM.

With `Cc1cccc(Nc2nc(NCc3ccco3)c3ccccc3n2)c1`, the midpoint of inhibition, the IC50, lay at 19.7 µM.

As for `COc1ccc(Nc2nc(NCc3ccccc3)c3ccccc3n2)cc1`, the 50% inhibitory concentration (IC50) was determined as 21.3 µM.

As to `Fc1ccc(Nc2nc(NCc3ccccc3)c3ccccc3n2)cc1`, the IC50 was 23.4 µM.

`Oc1ccc(Nc2nc(NCc3ccco3)c3ccccc3n2)cc1` had a concentration for half-maximal inhibition (IC50) of 22.7 µM.

Turning to `CN(C)CCNc1nc(-c2ccc(C(C)(C)C)cc2)nc2ccccc12`, the IC50 was above 50 µM.

In the case of `O=S(=O)(NCCc1c[nH]c2ccc(F)cc12)c1ccc(Br)cc1OC(F)(F)F`, the half-inhibitory concentration (IC50) came out at 39.4 µM.

Regarding `COc1ccc(Nc2nc(NCc3ccco3)c3ccccc3n2)cc1`, the IC50 turned out to be 24.5 µM.

Compound `Oc1cccc(Nc2nc(NCc3ccccc3)c3ccccc3n2)c1` came in with an IC50 of 22.6 µM.

A further test concerns HT-29. Briefly: Anticancer activity against human HT-29 cells by MTT assay. Format: functional, cell-based.
Regarding `CCOc1ccc(Nc2nc(NCc3ccccc3)c3ccccc3n2)cc1`, the IC50 worked out at 16.5 µM.

With `Cc1cccc(Nc2nc(NCc3ccco3)c3ccccc3n2)c1`, the midpoint of inhibition, the IC50, lay at 10.1 µM.

`COc1ccc(Nc2nc(NCc3ccccc3)c3ccccc3n2)cc1` gave an IC50 of 13.4 µM.

Turning to `Fc1ccc(Nc2nc(NCc3ccccc3)c3ccccc3n2)cc1`, the concentration for half-maximal inhibition (IC50) was 2.41 µM.

In the case of `Oc1ccc(Nc2nc(NCc3ccco3)c3ccccc3n2)cc1`, 14 µM corresponded to half-maximal inhibition (IC50).

In turn, `CN(C)CCNc1nc(-c2ccc(C(C)(C)C)cc2)nc2ccccc12` registered a half-inhibitory concentration (IC50) of 8.72 µM.

Regarding `O=S(=O)(NCCc1c[nH]c2ccc(F)cc12)c1ccc(Br)cc1OC(F)(F)F`, the IC50 was 33.4 µM.

Consider `COc1ccc(Nc2nc(NCc3ccco3)c3ccccc3n2)cc1`, for which the half-inhibitory concentration (IC50) is 0.902 µM.

On to `Oc1cccc(Nc2nc(NCc3ccccc3)c3ccccc3n2)c1`, for which 15.8 µM corresponded to half-maximal inhibition (IC50).

The test system of the next test is SK-MEL-2. Briefly: Anticancer activity against human SK-MEL-2 cells by MTT assay. The format is functional, cell-based.
As to `O=S(=O)(NCCc1c[nH]c2ccc(F)cc12)c1ccc(Br)cc1OC(F)(F)F`, half-maximal inhibition (IC50) required 45.8 µM.

In a further test the test system is SK-OV-3. Briefly: Anticancer activity against human SKOV3 cells by MTT assay. The format is functional, cell-based.
`O=S(=O)(NCCc1c[nH]c2ccc(F)cc12)c1ccc(Br)cc1OC(F)(F)F` came in with an IC50 above 100 µM.

In a further test the test system is MCF7. Briefly: Anticancer activity against human MCF7 cells by MTT assay. Format: functional, cell-based.
`COc1ccc(Nc2nc(NCc3ccco3)c3ccccc3n2)cc1` yielded a concentration for half-maximal inhibition (IC50) of 7.25 µM.

The next test concerns DU-145. Briefly: Anticancer activity against human DU145 cells assessed as growth inhibition at 10 uM by MTT assay. The format is functional.
With `CCOc1ccc(Nc2nc(NCc3ccccc3)c3ccccc3n2)cc1`, the inhibition at 10 µM is 58%.

`Cc1cccc(Nc2nc(NCc3ccco3)c3ccccc3n2)c1`: the inhibition at 10 µM stood at 53.7%.

Consider `COc1ccc(Nc2nc(NCc3ccccc3)c3ccccc3n2)cc1`, for which the inhibition at 10 µM amounted to 52.2%.

As for `Fc1ccc(Nc2nc(NCc3ccccc3)c3ccccc3n2)cc1`, the inhibition at 10 µM was found to be 38.2%.

`Oc1ccc(Nc2nc(NCc3ccco3)c3ccccc3n2)cc1`: the inhibition at 10 µM was 30.3%.

`CN(C)CCNc1nc(-c2ccc(C(C)(C)C)cc2)nc2ccccc12`: the inhibition at 10 µM came to 86.5%.

In the case of `COc1ccc(Nc2nc(NCc3ccco3)c3ccccc3n2)cc1`, the inhibition at 10 µM was determined as 28.7%.

Turning to `Oc1cccc(Nc2nc(NCc3ccccc3)c3ccccc3n2)c1`, the inhibition at 10 µM stood at 35%.

The subject of a further test is HT-29. Briefly: Anticancer activity against human HT-29 cells assessed as growth inhibition at 10 uM by MTT assay. The format is functional.
For `CCOc1ccc(Nc2nc(NCc3ccccc3)c3ccccc3n2)cc1`, the inhibition at 10 µM was found to be 83.3%.

Regarding `Cc1cccc(Nc2nc(NCc3ccco3)c3ccccc3n2)c1`, the inhibition at 10 µM is 77.9%.

Consider `COc1ccc(Nc2nc(NCc3ccccc3)c3ccccc3n2)cc1`, for which the inhibition at 10 µM was found to be 80.7%.

Regarding `Fc1ccc(Nc2nc(NCc3ccccc3)c3ccccc3n2)cc1`, the inhibition at 10 µM was determined as 74.4%.

In the case of `Oc1ccc(Nc2nc(NCc3ccco3)c3ccccc3n2)cc1`, the inhibition at 10 µM was found to be 67.6%.

Consider `CN(C)CCNc1nc(-c2ccc(C(C)(C)C)cc2)nc2ccccc12`, for which the inhibition at 10 µM was 89.8%.

For the compound `COc1ccc(Nc2nc(NCc3ccco3)c3ccccc3n2)cc1`, the inhibition at 10 µM was determined as 64.2%.

`Oc1cccc(Nc2nc(NCc3ccccc3)c3ccccc3n2)c1`: the inhibition at 10 µM was found to be 61.3%.

The test system of the next test is SK-MEL-2. Briefly: Anticancer activity against human SK-MEL-2 cells assessed as growth inhibition at 10 uM by MTT assay. The format is functional.
Take `CCOc1ccc(Nc2nc(NCc3ccccc3)c3ccccc3n2)cc1`: the inhibition at 10 µM was found to be 91.6%.

Turning to `Cc1cccc(Nc2nc(NCc3ccco3)c3ccccc3n2)c1`, the inhibition at 10 µM was found to be 77.6%.

In the case of `COc1ccc(Nc2nc(NCc3ccccc3)c3ccccc3n2)cc1`, the inhibition at 10 µM turned out to be 81.2%.

Consider `Fc1ccc(Nc2nc(NCc3ccccc3)c3ccccc3n2)cc1`, for which the inhibition at 10 µM was 69.9%.

As to `Oc1ccc(Nc2nc(NCc3ccco3)c3ccccc3n2)cc1`, the inhibition at 10 µM amounted to 39%.

As to `CN(C)CCNc1nc(-c2ccc(C(C)(C)C)cc2)nc2ccccc12`, the inhibition at 10 µM was determined as 91.5%.

On to `COc1ccc(Nc2nc(NCc3ccco3)c3ccccc3n2)cc1`, for which the inhibition at 10 µM is 22.8%.

In the case of `Oc1cccc(Nc2nc(NCc3ccccc3)c3ccccc3n2)c1`, the inhibition at 10 µM came out at 46.7%.

For orientation: inhibition means the drop in the measured response relative to a control, in per cent. In general, IC50 refers to the concentration that gives 50% inhibition. High values mean lower potency, low ones higher potency.
